How the values were obtained:
[1] = Induction of adipocyte differentiation in mouse 3T3-L1 cells at 10 uM
[2] = target: T1, Peroxisome proliferator-activated receptor gamma (Homo sapiens, UniProt P37231)
T1 sequence (P37231 whole entry): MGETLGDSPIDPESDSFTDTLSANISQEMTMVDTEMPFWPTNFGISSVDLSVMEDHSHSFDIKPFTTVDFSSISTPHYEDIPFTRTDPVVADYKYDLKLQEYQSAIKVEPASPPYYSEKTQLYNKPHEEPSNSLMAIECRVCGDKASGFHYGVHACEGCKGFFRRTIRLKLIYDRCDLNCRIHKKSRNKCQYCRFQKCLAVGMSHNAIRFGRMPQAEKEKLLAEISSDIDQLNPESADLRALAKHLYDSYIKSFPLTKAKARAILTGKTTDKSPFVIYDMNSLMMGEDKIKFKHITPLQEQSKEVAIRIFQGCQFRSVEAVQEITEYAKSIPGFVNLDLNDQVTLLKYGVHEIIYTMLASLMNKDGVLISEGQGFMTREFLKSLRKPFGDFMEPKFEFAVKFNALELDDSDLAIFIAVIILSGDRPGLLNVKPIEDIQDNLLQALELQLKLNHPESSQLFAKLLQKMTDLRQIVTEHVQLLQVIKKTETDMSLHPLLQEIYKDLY
Description: Activation of Gal4-tagged human PPARgamma expressed in CHO cells by luciferase reporter gene assay

EC50 [2] [nM]	SMILES	Activity [1] [%]
3400	CCCc1nc2c(C)cc(-c3nc4ccccc4n3C)cc2n1Cc1ccc(-c2ccccc2C(=O)O)cc1	70
470	CCCc1nc2ccc(Br)cc2n1Cc1ccc(-c2ccccc2C(=O)O)cc1	102
1900	CCCc1nc2ccccc2n1Cc1ccc(-c2ccccc2C(=O)O)cc1	67
3500	CCCc1nc2ccc(C(O)c3ccccc3)cc2n1Cc1ccc(-c2ccccc2C(=O)O)cc1 (stereo not given)	88

Further lines, the molecule ahead of its results:

SMILES	EC50 [2] [nM]	Activity [1] [%]
CCCc1nc2cc(C(O)c3ccccc3)ccc2n1Cc1ccc(-c2ccccc2C(=O)O)cc1 (stereo not given)	2900	100
CCCc1nc2cc3ccccc3cc2n1Cc1ccc(-c2ccccc2C(=O)O)cc1	260	105
CCCc1nc2cc(Br)ccc2n1Cc1ccc(-c2ccccc2C(=O)O)cc1	–	103
CCCc1nc2cc(C(=O)c3ccccc3)ccc2n1Cc1ccc(-c2ccccc2C(=O)O)cc1	580	104
CCc1ccc(CCOc2ccc(CC3SC(=O)NC3=O)cc2)nc1 (stereo not given) [PIOGLITAZONE]	–	100
CCCc1nc2ccc(C(=O)c3ccccc3)cc2n1Cc1ccc(-c2ccccc2C(=O)O)cc1	620	97
CCCc1nc2cc(Br)c(Br)cc2n1Cc1ccc(-c2ccccc2C(=O)O)cc1	400	74

From ChEMBL document CHEMBL1212876, “Characterization of new PPARgamma agonists: benzimidazole derivatives-importance of positions 5 and 6, and computational studies on the binding mode” (Bioorg Med Chem, 2010)
